Earlier results as cited in US10864304B2, “Anti-infective antimicrobial-containing biomaterials” (ATRIUM MEDICAL CORPORATION, priority 2009, dated 2020).

System: bacteria
Details: previously reported (K. C. Chaw et al. 2005)

Compound: [Ag] [silver]
- amount of silver needed to produce an antimicrobial effect: ~50 ppb
